These results are taken from patent US20230286948A1 (HUYABIO International, LLC, priority 2022, published 2023).

Bounds are passed on as bounds.

In this test the target is MLL1-WDR5 protein-protein interaction (Homo sapiens (Human), UniProt P61964). In words: WDR5 TR-FRET assay (MLL1-WDR5 PPI inhibition). It counts as binding. The settings on record: 5 nM WDR5 protein, 10 nM peptide, read-out: IC50 (nM), MLL1-WDR5 PPI inhibitory activity. As for the experimental part:
WDR5 TR-FRET Assay Procedure: Stock compounds were transferred to the assay plate by Echo Liquid Handler. […] Stock compounds were incubated with WDR5 protein for 30 min at room temperature. Plates were covered, protected from light and incubated for 60 min at room temperature, after adding the peptide and Tb-Ab. EnVision Multimode Plate Reader (PerkinElmer) was used for the TR-FRET assay with excitation wavelength at 340 nm and emission wavelength at 495 and 520 nm. The ratio of the 520/495 wavelengths were used to assess the degree of the FRET signal. IC50 was calculated by fitting the inhibition data using XLfit software to sigmoidal dose-response model.
As to `C[C@@H]1CN(c2cc(F)c(-n3cc(C(=O)NC4CCN(C)CC4)nn3)cc2NC(=O)c2cnc(C(F)(F)F)cc2Cl)C[C@H](C)N1C` [Example 58, 4-chloro-N-(4-fluoro-5-(4-((1-methylpiperidin-4-yl)carbamoyl)-1H-1,2,3-triazol-1-yl)-2-((3S,5R)-3,4,5-trimethylpiperazin-1-yl)phenyl)-6-(trifluoromethyl)nicotinamide], the IC50 (as a rule, the point on the concentration scale where inhibition reaches its midpoint) was more than 10000 nM.

In the case of `Cc1cc(Cl)c(C(=O)Nc2cc(-n3cc(C(=O)NCCCN4CCOCC4)nn3)ccc2N2CCN(C)CC2)cc1N` [Example 49, 1-(3-(5-amino-2-chloro-4-methylbenzamido)-4-(4-methylpiperazin-1-yl)phenyl)-N-(3-morpholinopropyl)-1H-1,2,3-triazole-4-carboxamide], the concentration for half-maximal inhibition (IC50) came out at 4370 nM.

For `COc1cnc(C(=O)Nc2cc(-n3cc(C(=O)NCCCN4CCOCC4)nn3)ccc2N2CCN(C)CC2)c(OC)n1` [Example 36, 3,5-dimethoxy-N-(2-(4-methylpiperazin-1-yl)-5-(4-((3-morpholinopropyl)carbamoyl)-1H-1,2,3-triazol-1-yl)phenyl)pyrazine-2-carboxamide], the IC50 was more than 10000 nM.

`CN1CCN(c2ccc(-n3cc(C(=O)NCCCN4CCOCC4)nn3)cc2NC(=O)c2cnc(F)cc2C(F)(F)F)CC1` [Example 11, 6-fluoro-N-(2-(4-methylpiperazin-1-yl)-5-(4-((3-morpholinopropyl)carbamoyl)-1H-1,2,3-triazol-1-yl)phenyl)-4-(trifluoromethyl)nicotinamide]: the IC50 turned out to be 4230 nM.

As for `CN1CCN(c2cc(F)c(-n3cc(C(=O)NCCCN4CCOCC4)nn3)cc2NC(=O)c2cnc(Cl)cc2C(F)(F)F)CC1` [Example 7, 6-chloro-N-(4-fluoro-2-(4-methylpiperazin-1-yl)-5-(4-((3-morpholinopropyl)carbamoyl)-1H-1,2,3-triazol-1-yl)phenyl)-4-(trifluoromethyl)nicotinamide], the IC50 was more than 10000 nM.

As for `C[C@@H]1CN(c2ccc(-n3cc(C(=O)NCCCN4CCOCC4)nn3)cc2NC(=O)c2c[nH]c(=O)cc2C(F)(F)F)C[C@H](C)N1C` [Example 2, N-(5-(4-((3-morpholinopropyl)carbamoyl)-1H-1,2,3-triazol-1-yl)-2-((3S,5R)-3,4,5-trimethylpiperazin-1-yl)phenyl)-6-oxo-4-(trifluoromethyl)-1,6-dihydropyridine-3-carboxamide], the IC50 is 16.7 nM.

As to `CN1CCN(c2ccc(-n3cc(C(=O)NCCCN4CCOCC4)nn3)cc2NC(=O)c2ccc(S(C)(=O)=O)nc2C(F)(F)F)CC1` [Example 44, N-[2-(4-methylpiperazin-1-yl)-5-[4-(3-morpholinopropylcarbamoyl)triazol-1-yl]phenyl]-6-methylsulfonyl-2-(trifluoromethyl)pyridine-3-carboxamide], the IC50 is more than 10000 nM.

Take `Cc1c(Cl)ncc(C(=O)Nc2cc(-n3cc(C(=O)NCCCN4CCOCC4)nn3)c(F)cc2N2C[C@@H](C)N(C)[C@@H](C)C2)c1Cl` [Example 59, 4,6-dichloro-N-[4-fluoro-5-[4-(3-morpholinopropylcarbamoyl)triazol-1-yl]-2-[(3R,5S)-3,4,5-trimethylpiperazin-1-yl]phenyl]-5-methyl-pyridine-3-carboxamide]: the IC50 was more than 10000 nM.

Consider `COc1ccc(CNc2ccc(C(=O)Nc3cc(-n4cc(C(=O)NCCCN5CCOCC5)nn4)ccc3N3CCN(C)CC3)c(C(F)(F)F)n2)cc1` [Example 42, 6-((4-methoxybenzyl)amino)-N-(2-(4-methylpiperazin-1-yl)-5-(4-((3-morpholinopropyl)carbamoyl)-1H-1,2,3-triazol-1-yl)phenyl)-2-(trifluoromethyl)nicotinamide], for which the concentration for half-maximal inhibition (IC50) is more than 10000 nM.

Consider `CSc1ccc(C(=O)Nc2cc(-n3cc(C(=O)NCCCN4CCOCC4)nn3)ccc2N2CCN(C)CC2)c(C(F)(F)F)n1` [Example 43, N-(2-(4-methylpiperazin-1-yl)-5-(4-((3-morpholinopropyl)carbamoyl)-1H-1,2,3-triazol-1-yl)phenyl)-6-(methylthio)-2-(trifluoromethyl)nicotinamide], for which the half-inhibitory concentration (IC50) was more than 10000 nM.

Turning to `CN1CCN(c2ccc(-n3cc(C(=O)NCCCN4CCOCC4)nn3)cc2NC(=O)c2nnc(Cl)cc2N)CC1` [Example 33, 4-amino-6-chloro-N-(2-(4-methylpiperazin-1-yl)-5-(4-((3-morpholinopropyl)carbamoyl)-1H-1,2,3-triazol-1-yl)phenyl)pyridazine-3-carboxamide], the concentration for half-maximal inhibition (IC50) was more than 10000 nM.

As for `CN1CCN(c2ccc(-n3cc(C(=O)NCCCN4CCOCC4)nn3)cc2NC(=O)c2ncc(N)cn2)CC1` [HYBI-267, 5-amino-N-(2-(4-methylpiperazin-1-yl)-5-(4-((3-morpholinopropyl)carbamoyl)-1H-1,2,3-triazol-1-yl)phenyl)pyrimidine-2-carboxamide], the 50% inhibitory concentration (IC50) is more than 10000 nM.

As to `C[C@@H]1CN(c2cc(F)c(-n3cc(C(=O)NCCCN4CCOCC4)nn3)cc2NC(=O)c2c[nH]c(=O)cc2C(F)(F)F)C[C@H](C)N1C` [Example 6, N-(4-fluoro-5-(4-((3-morpholinopropyl)carbamoyl)-1H-1,2,3-triazol-1-yl)-2-((3S,5R)-3,4,5-trimethylpiperazin-1-yl)phenyl)-6-oxo-4-(trifluoromethyl)-1,6-dihydropyridine-3-carboxamide], the IC50 worked out at 7.23 nM.

Consider `C[C@@H]1CN(c2cc(F)c(-n3cc(C(=O)NCCCN4CCOCC4)nn3)cc2NC(=O)c2cnc(Cl)cc2C(F)(F)F)C[C@H](C)N1C` [Example 5, 6-chloro-N-(4-fluoro-5-(4-((3-morpholinopropyl)carbamoyl)-1H-1,2,3-triazol-1-yl)-2-((3S,5R)-3,4,5-trimethylpiperazin-1-yl)phenyl)-4-(trifluoromethyl)nicotinamide], for which the IC50 was 7270 nM.

Consider `CN1CCN(c2ccc(-n3cc(C(=O)NCCCN4CCOCC4)nn3)cc2NC(=O)c2c[nH]c(=O)cc2C(F)(F)F)CC1` [Example 4], for which the concentration for half-maximal inhibition (IC50) worked out at 51.3 nM.

Consider `CN1CCN(c2ccc(-n3cc(C(=O)NCCCN4CCOCC4)nn3)cc2NC(=O)c2cnc(N)cc2C(F)(F)F)CC1` [Example 18, 6-amino-N-(2-(4-methylpiperazin-1-yl)-5-(4-((3-morpholinopropyl)carbamoyl)-1H-1,2,3-triazol-1-yl)phenyl)-4-(trifluoromethyl)nicotinamide], for which the IC50 is more than 10000 nM.

`Cc1cc(Cl)c(C(=O)Nc2cc(-n3cc(C(=O)NCCCN4CCOCC4)nn3)ccc2N2CCN(C)CC2)cc1[N+](=O)[O-]` [Example 48, 1-[3-[(2-chloro-4-methyl-5-nitro-benzoyl)amino]-4-(4-methylpiperazin-1-yl)phenyl]-N-(3-morpholinopropyl)triazole-4-carboxamide]: the 50% inhibitory concentration (IC50) was more than 10000 nM.

With `CCN(CC)C(=O)c1cn(-c2cc(NC(=O)c3cnc(F)cc3C(F)(F)F)c(N3C[C@@H](C)N(C)[C@@H](C)C3)cc2F)nn1` [Example 53, N-(5-(4-(diethylcarbamoyl)-1H-1,2,3-triazol-1-yl)-4-fluoro-2-((3S,5R)-3,4,5-trimethylpiperazin-1-yl)phenyl)-6-fluoro-4-(trifluoromethyl)nicotinamide], the IC50 stood at 535 nM.

On to `CCN(CC)C(=O)c1cn(-c2cc(NC(=O)c3cnc(Cl)cc3Cl)c(N3C[C@@H](C)N(C)[C@@H](C)C3)cc2F)nn1` [Example 56, 4,6-dichloro-N-[5-[4-(diethylcarbamoyl)triazol-1-yl]-4-fluoro-2-[(3R,5S)-3,4,5-trimethylpiperazin-1-yl]phenyl]pyridine-3-carboxamide], for which the 50% inhibitory concentration (IC50) is 1160 nM.
